# From patent publication US20030207791A1, “Materials and methods relating to the treatment of leukaemias” (priority 2000, published 2003)
# Assays:
# Type in all cases: cell-based
# [1] = system: ΔCC-PML-RAR; assay: RA sensitivity of transcriptional repression, RARE-G5-TATA reporter; details: RA 1 nM-10 μM, repression by ΔCC-PML-RAR
# Excerpt: Light units were normalized to expression of a co-transfected β-galactosidase expression plasmid.
# [2] = system: murine hematopoietic progenitors (lin-); assay: In vitro differentiation of murine hematopoietic progenitor cells transduced with retroviral constructs; details: control cells, RA 3 nM or 1 μM; maximum; as described (Purton et al., 1999)
# Experimental: FIG. 5. A heterologous oligomerization domain activates the transforming potential of RAR. (A-B) p53-RAR form oligomers. (A) Nuclear extracts from COS-1 cells transfected with expression vectors for p53-RAR or RAR were incubated with tritiated RA (10 nM), fractionated and analysed as described in FIG. 3A. Note that the low MW peak of RA-binding capacity (coinciding with RAR) in p53-RAR cells derives from expression of wild type RAR, starting from its own ATG-conserved in the p53-RAR expression vector (see below)-. (B) Fractions from gel filtration of in vitro translated, ^35-S labelled p53-RAR were analysed by SDS-PAGE, followed by autoradiography. Note that two products are generated in the reaction: full-length p53-RAR, fractionating in oligomeric complexes, and RAR, starting from the internal ATG site of RAR and fractionating as a monomer. […] After sorting, cells were either plated in differentiation medium in the absence or in the presence of RA (3 nM or 1 μM) (C), or analysed by Western blot (D). […]
# The capacity of p53-RAR to block differentiation was evaluated using primary hematopoietic precursors purified from murine bone marrow on the basis of the absence of surface differentiation antigens (lin-see methods). […] After 8-10 days, colonies were pooled and analysed for the expression of myeloid differentiation markers (Mac-1 and GR-1). […]
# [3] = system: CC-RAR expressing murine primary haemopoietic precursors; assay: RA relief of differentiation block in transduced murine primary haemopoietic precursors; details: RA 3 nM or 1 μM, block by CC-RAR
# Excerpt: (§1) FIG. 5. […] (C-D) Effects of RAR chimeric proteins on differentiation of murine hematopoietic progenitors. Lin-cells were transduced with the indicated retroviral vectors and then sorted by FACS on the basis of their GFP positivity. In the case of ΔCC-PML-RAR, GFP+ cells were sorted in GFP^high or GFP^low expressors.
# (§2) Murine hematopoietic progenitors were purified from the bone marrow of 12 weeks old BALB-C mice using commercially available kits (StemCell Tecnology). Cells were selected on the basis of the absence of lineage differentiation markers (lin−). Purified cells were pre-stimulated for two days in medium containing IL-3 (20 ng/ml), IL-6 (20 ng/ml) and stem cell factor (SCF, 100 ng/ml) and then attached to Retronectin (Takara Shuzo)-coated multiwell plates. Cells were incubated for 48 hours with the filtered supernatant from ecotropic packaging cells (Phoenix) transiently transfected with the indicated retroviral constructs (Grignani et al., 1998).
# [4] = system: PML-RAR expressing murine primary haemopoietic precursors; assay: as above; details: RA 3 nM or 1 μM, block by PML-RAR
# Excerpt: as §1, §2
smiles,measurement,setting,value
"CC1=C(/C=C/C(C)=C/C=C/C(C)=C/C(=O)O)C(C)(C)CCC1 [RA, retinoic acid]",RA concentration that reverted transcriptional repression,[1],up to 100 nM
same,reduction in the number of Mac1+ cells,[2],20-30%
same,RA concentration that relieved the differentiation block,[3],1 µM
same,RA concentration that relieved the differentiation block,[4],1 µM
